Results as given in patent US6737383B1, “Herbicidal oxadiazolidines” (priority 1999, dated 2004).

Tests used:
[1] = system: surinam grass; test: Test B pre/postemergence surinam grass; type: in vivo, Brachiaria decumbens
How it was run: (§1)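 Response is a visual 0-to-10 score relative to untreated plants, where 0 means no effect and 10 means complete control, taken twelve to sixteen days after application. Treatments went onto soil at planting and onto foliage of 1- to 4-leaf plants, using a surfactant-containing non-phytotoxic solvent.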

[2] = system: bedstraw; test: Test B pre/postemergence bedstraw; type: in vivo, Galium aparine
How it was run: as §1

[3] = system: wild oat; test: Test B pre/postemergence wild oat; type: in vivo, Avena fatua
How it was run: as §1

[4] = system: bamyardgrass; test: Test B flood test barnyardgrass; type: in vivo, Echinochloa crus-galli
How it was run: (§2)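 Each value is a visual injury score relative to controls, with 10 meaning complete control and 0 no effect. Evaluation took place twelve to sixteen days after the 2-leaf-stage plants were treated and kept in the greenhouse.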

[5] = system: velvetleaf; test: Test B pre/postemergence velvetleaf; type: in vivo, Abutilon theophrasti
How it was run: as §1

[6] = system: pigweed; test: Test B pre/postemergence pigweed; type: in vivo, Amaranthus retroflexus
How it was run: as §1

[7] = system: sugar beet; test: Test B pre/postemergence sugar beet; type: in vivo, Beta vulgaris
How it was run: as §1

[8] = system: smallflower flatsedge; test: Test B flood test smallflower flatsedge; type: in vivo, Cyperus difformis
How it was run: as §2

[9] = system: rice; test: Test B flood test rice; type: in vivo, Oryza sativa
How it was run: as §2

[10] = system: corn; test: Test B pre/postemergence corn; type: in vivo, Zea mays
How it was run: as §1

[11] = system: crabgrass; test: Test B pre/postemergence crabgrass; type: in vivo, Digitaria sanguinalis
How it was run: as §1

[12] = system: rape; test: Test B pre/postemergence rape; type: in vivo, Brassica napus
How it was run: as §1

[13] = system: soybean; test: Test B pre/postemergence soybean; type: in vivo, Glycine max
How it was run: as §1

[14] = system: cocklebur; test: Test B pre/postemergence cocklebur; type: in vivo, Xanthium strumarium
How it was run: as §1

[15] = system: duck salad; test: Test B flood test duck salad; type: in vivo, Heteranthera limosa
How it was run: as §2

[16] = system: morningglory; test: Test B pre/postemergence morningglory; type: in vivo, Ipomoea hederacea
How it was run: as §1

[17] = Postemergence, Rate 62 g/ha, scale 0 to 10, 0 is no effect, 10 is complete control
[18] = Postemergence, Rate 250 g/ha, scale 0 to 10, 0 no effect, 10 complete control
[19] = Preemergence, Rate 62 g/ha, scale 0 to 10 (0 no effect, 10 complete control)
[20] = Preemergence, Rate 125 g/ha, scale 0 to 10 (0 no effect, 10 complete control)
[21] = Preemergence, Rate 250 g/ha, scale of 0 to 10 where 0 is no effect and 10 is complete control
[22] = Preemergence, Rate 500 g/ha, scale 0 (no effect) to 10 (complete control)
[23] = Rate 125 g/ha, Postemergence, scale 0 to 10, 0 no effect, 10 complete control
[24] = Rate 500 g/ha, Postemergence, scale 0 to 10, 0 no effect, 10 complete control
[25] = Rate 125 g/ha, Postemergence section (flood test species), scale 0 to 10, 0 no effect, 10 complete control
[26] = Rate 500 g/ha, listed under Postemergence (flood test species), scale 0 to 10, 0 no effect, 10 complete control
[27] = flood test, listed under Postemergence, Rate 250 g/ha, scale 0 to 10, 0 no effect, 10 complete control

Cc1cccc(C(C)C)c1-n1c(=O)on(C(=O)N(c2ccc(F)cc2)C(C)C)c1=O [Compound 65]
3: Bedstraw plant response rating [2, 22] | Velvetleaf plant response rating [5, 17] | Velvetleaf plant response rating [5, 18] | Velvetleaf plant response rating [5, 23] | Redroot pigweed plant response rating [6, 22] | Rice plant response rating [9, 26] | Rape plant response rating [12, 22]
9: Crabgrass plant response rating [11, 22]
0: B. signalgrass plant response rating [1, 17] | B. signalgrass plant response rating [1, 18] | B. signalgrass plant response rating [1, 19] | Plant response rating, B. signalgrass [1, 20] | Plant response rating, B. signalgrass [1, 21] | B. signalgrass plant response rating [1, 22] | B. signalgrass plant response rating [1, 23] | B. signalgrass plant response rating ([1]; Rate 500 g/ha, Postemergence, scale of 0 to 10 where 0 is no effect and 10 is complete control) | Bedstraw plant response rating [2, 17] | Bedstraw plant response rating [2, 18] | Bedstraw plant response rating [2, 19] | Plant response rating, Bedstraw [2, 20] | Bedstraw plant response rating [2, 23] | Bedstraw plant response rating [2, 24] | Wild oats plant response rating [3, 17] | Wild oats plant response rating [3, 18] | Wild oats plant response rating [3, 19] | Plant response rating, Wild oats [3, 20] | Plant response rating, Wild oats [3, 21] | Wild oats plant response rating [3, 22] | Wild oats plant response rating [3, 23] | Wild oats plant response rating [3, 24] | Barnyardgrass plant response rating [4, 17] | Barnyardgrass plant response rating [4, 25] | Barnyardgrass plant response rating [4, 27] | Velvetleaf plant response rating [5, 19] | Plant response rating, Velvetleaf [5, 20] | Plant response rating, Velvetleaf [5, 21] | Velvetleaf plant response rating [5, 22] | Redroot pigweed plant response rating [6, 17] | Redroot pigweed plant response rating [6, 18] | Redroot pigweed plant response rating [6, 19] | Plant response rating, Redroot pigweed [6, 20] | Plant response rating, Redroot pigweed [6, 21] | Redroot pigweed plant response rating [6, 23] | Redroot pigweed plant response rating [6, 24] | Sugarbeets plant response rating [7, 17] | Sugarbeets plant response rating [7, 18] | Sugarbeets plant response rating [7, 19] | Plant response rating, Sugarbeets [7, 20] | Plant response rating, Sugarbeets [7, 21] | Sugarbeets plant response rating [7, 22] | Sugarbeets plant response rating [7, 23] | Sugarbeets plant response rating [7, 24] | S. Flatsedge plant response rating [8, 17] | S. Flatsedge plant response rating [8, 25] | S. Flatsedge plant response rating [8, 26] | S. Flatsedge plant response rating [8, 27] | Rice plant response rating [9, 17] | Rice plant response rating [9, 25] | Rice plant response rating [9, 27] | Corn plant response rating [10, 17] | Corn plant response rating [10, 18] | Corn plant response rating [10, 19] | Plant response rating, Corn [10, 20] | Plant response rating, Corn [10, 21] | Corn plant response rating [10, 22] | Corn plant response rating [10, 23] | Corn plant response rating [10, 24] | Crabgrass plant response rating [11, 17] | Crabgrass plant response rating [11, 18] | Crabgrass plant response rating [11, 19] | Crabgrass plant response rating [11, 23] | Crabgrass plant response rating [11, 24] | Rape plant response rating [12, 17] | Rape plant response rating [12, 18] | Rape plant response rating [12, 19] | Plant response rating, Rape [12, 20] | Plant response rating, Rape [12, 21] | Rape plant response rating [12, 23] | Rape plant response rating [12, 24] | Soybean plant response rating [13, 19] | Plant response rating, Soybean [13, 20] | Plant response rating, Soybean [13, 21] | Soybean plant response rating [13, 22] | Cocklebur plant response rating [14, 17] | Cocklebur plant response rating [14, 18] | Cocklebur plant response rating [14, 19] | Plant response rating, Cocklebur [14, 20] | Plant response rating, Cocklebur [14, 21] | Cocklebur plant response rating [14, 22] | Cocklebur plant response rating [14, 23] | Cocklebur plant response rating [14, 24] | Ducksalad plant response rating [15, 17] | Ducksalad plant response rating [15, 25] | Ducksalad plant response rating [15, 26] | Ducksalad plant response rating [15, 27] | Morningglory plant response rating [16, 17] | Morningglory plant response rating [16, 19] | Plant response rating, Morningglory [16, 20] | Plant response rating, Morningglory [16, 21] | Morningglory plant response rating [16, 22]
1: Soybean plant response rating [13, 17] | Soybean plant response rating [13, 18] | Soybean plant response rating [13, 23] | Soybean plant response rating [13, 24] | Morningglory plant response rating [16, 18] | Morningglory plant response rating [16, 23]
2: Plant response rating, Bedstraw [2, 21] | Barnyardgrass plant response rating [4, 26] | Plant response rating, Crabgrass [11, 20] | Morningglory plant response rating [16, 24]
4: Velvetleaf plant response rating [5, 24] | Plant response rating, Crabgrass [11, 21]
